Laboratory results taken from US20100022526A1, “PYRIDAZINE DERIVATIVES, PROCESSES FOR THEIR PREPARATION AND THEIR USE AS FUNGICIDES” (SYNGENTA CROP PROTECTION, INC., priority 2007, published 2010).

What was measured:
[1] = test system: Magnaporthe grisea (Pyricularia oryzae); experiment: whole plant or invertebrate; format: in vivo; settings: read-out: inhibit fungal infestation
Botrytis cinerea = experiment: Botrytis cinerea/tomato/preventive (Action against Botrytis on Tomato); format: in vivo; settings: preventive spray, tomato plants cv. Roter Gnom, inoculated two days after application, assessed after 3 days, untreated controls infected over 80%, read-out: inhibit fungal infestation
Procedure: (§1) Botrytis cinerea/tomato/preventive (Action against Botrytis on Tomato) 4 weeks old tomato plants cv. Roter Gnom are treated with the formulated test compound in a spray chamber. Two days after application tomato plants are inoculated by spraying a spore suspension on the test plants. After an incubation period of 3 days at 20° C. and 95% r. h. in a greenhouse the disease incidence is assessed.

[2] = test system: Pyrenophora teres (Helminthosporium teres); experiment: Pyrenophora teres (Helminthosporium teres)/barley/preventive (Action against Net Blotch on Barley); format: in vivo; settings: preventive spray, barley plants cv. Regina, inoculated two days after application, assessed after 4 days, untreated controls infected over 80%, read-out: inhibit fungal infestation
Procedure: Pyrenophora teres (Helminthosporium teres)/barley/preventive (Action against Net Blotch on Barley) 1-week-old barley plants cv. Regina are treated with the formulated test compound in a spray chamber. Two days after application barley plants are inoculated by spraying a spore suspension (2.6×10^4 conidia/ml) on the test plants. After an incubation period of 4 days at 20° C. and 95% r. h. the disease incidence is assessed.

Alternaria solani = experiment: Alternaria solani/tomato/Preventive (Action against Alternaria on Tomato); format: in vivo; settings: preventive spray, tomato plants cv. Roter Gnom, inoculated two days after application, assessed after 4 days, untreated controls infected over 80%, read-out: inhibit fungal infestation
Procedure: as §1, with “Alternaria solani/tomato/Preventive” for “Botrytis cinerea/tomato/preventive”, “Alternaria” for “Botrytis”, “4” for “3”, “22° C./18°” for “20°”

Uncinula necator = experiment: Uncinula necator/grape/preventive (Action against Powdery Mildew on Grape); format: in vivo; settings: Erysiphe necator, preventive spray, grape seedlings cv. Gutedel, inoculated one day after application, assessed after 7 days, untreated controls infected over 80%, read-out: inhibit fungal infestation
Procedure: Uncinula necator/grape/preventive (Action against Powdery Mildew on Grape) 5 weeks old grape seedlings cv. Gutedel are treated with the formulated test compound in a spray chamber. One day after application grape plants are inoculated by shaking plants infected with grape powdery mildew above the test plants. After an incubation period of 7 days at 24° C./22° C. and 70% r. h. under a light regime of 14/10 h (light/dark) the disease incidence is assessed.

Septoria tritici = experiment: Sentoria tritici/wheat/Preventive (Action against Septoria Leaf Spot on Wheat); format: in vivo; settings: Zymoseptoria tritici, preventive spray, wheat plants cv. Riband, inoculated one day after application, assessed 16-18 days after inoculation, untreated controls infected over 80%, read-out: inhibits fungal infestation
Procedure: Sentoria tritici/wheat/Preventive (Action against Septoria Leaf Spot on Wheat) 2 weeks old wheat plants cv. Riband are treated with the formulated test compound in a spray chamber. One day after application wheat plants are inoculated by spraying a spore suspension (10^6 conidia/ml) on the test plants. After an incubation period of 1 day at 22° C./21° C. and 95% r. h. plants are kept at 22° C./21° C. and 70% r.h. in a greenhouse. The disease incidence is assessed 16-18 days after inoculation.

Puccinia recondita = experiment: Puccinia recondita/wheat/preventive (Action against Brown Rust on Wheat); format: in vivo; settings: preventive spray, wheat plants cv. Arina, inoculated one day after application, assessed 11 days after inoculation, untreated controls infected over 80%, read-out: inhibits fungal infestation
Procedure: Puccinia recondita/wheat/preventive (Action against Brown Rust on Wheat) 1 week old wheat plants cv. Arina are treated with the formulated test compound in a spray chamber. One day after application wheat plants are inoculated by spraying a spore suspension (1×105 uredospores/ml) on the test plants. After an incubation period of 1 day at 20° C. and 95% r. h. plants are kept for 10 days 20° C./18° C. (day/night) and 60% r.h. in a greenhouse. The disease incidence is assessed 11 days after inoculation.

COc1nnc(Cl)c(-c2c(F)cc(F)cc2F)c1-c1ccc(Br)cc1 [I.l. 199, 4-(4-bromophenyl)-6-chloro-3-methoxy-5-(2,4,6-trifluorophenyl)-pyridazine]
inhibition at 200 ppm [1]: ≥ 80% | melting point: 113 to 119 °C | inhibition at 200 ppm (Botrytis cinerea): ≥ 80% | inhibition at 200 ppm [2]: ≥ 80% | inhibition at 200 ppm (Alternaria solani): ≥ 80% | inhibition at 200 ppm (Uncinula necator): ≥ 80% | inhibition at 200 ppm (Septoria tritici): ≥ 80% | inhibition at 200 ppm (Puccinia recondita): ≥ 80%
